# In patent US11666549B2, “Regulation of cancer using natural compounds and/or diet” (UNIVERSITY OF FLORIDA RESEARCH FOUNDATION, INC., priority 2013, dated 2023):
# “Also recorded” adds a separate entry of the source.
# What was measured:
# [1] = test system: Primary human GBM stem cell lines; assay: NP in vitro fold expansion of hGB cells; type: cell-based; conditions: EGCG 8 μM, Curcumin 0.5 μM, sulforaphane 2.5 μM or all three; daily for 4 out of 5 days; vs control
# Experimental: Cells were passed after 5-7 days and cell counts were performed. […] Micrographs show cultures after 4 days of exposure to the different treatments.
# Patient derived hGB cells were cultured under defined conditions using established protocols that allow the tumor cells to retain both their phenotypic and genotypic properties in vitro. hGB cell lines were treated with the following NPs:
# [2] = test system: Human breast cancer cells (ZR751); assay: NP on breast cancer cell viability, MTT assay; type: cell-based; conditions: daily EGCG 8 μM, Curcumin 0.5 μM, SFN 2.5 μM or combination; vs controls
# Experimental: Human breast cancer cells (ZR751) were treated daily with EGCG (8 μM), Curcumin (0.5 μM) or SFN (2.5 μM) individually or in combination (NP). Once the control cultures became confluent, cell viability was measured using MTT assay.
# Human breast cancer cells [ZR751] grown in culture and treated daily with physiological concentrations of either EGCG (8 μM), Curcumin (0.5 μM) or SFN (2.5 μM) or used in combination (NP).
# [3] = test system: Lung carcinoma cells (A549); assay: NP on lung cancer cells in vitro, cell count; type: cell-based, human; conditions: daily EGCG 8 μM, Curcumin 0.5 μM, sulforaphane 2.5 μM or all three; counted when controls confluent
# Experimental: Once the control cultures became confluent a cell count was performed.
# [4] = test system: Colorectal adenocarcinoma cells (HT-29); assay: NP on colon cancer cells in vitro, cell count; type: cell-based, human; conditions: daily EGCG 8 μM, Curcumin 0.5 μM, sulforaphane 2.5 μM or all three; counted when controls confluent
# Experimental: Once the control cultures became confluent, a cell count was performed.
# [5] = test system: Patient derived hGB cells; assay: Serial passage of hGB cells, growth and CSC expansion rate (Kll); type: cell-based, human; conditions: 5 passages; EGCG 8 μM, curcumin 0.5 μM, SFN 2.5 μM or combination; vs control
# Experimental: FIG. 10A) Patient derived hGB cells were serially passed in culture for 5 passages under a variety of treatment conditions. […] Human GB cells were cultured in the neurosphere assay over 5 passages during which CSC expansion rate was evaluated.
# In a second experiment [FIG. 10], patient derived hGB cells were serially passed in culture while being treated with the following NPs:
# [4] A combination of all three NPs
# [6] = test system: hNSC; assay: hNSC viability, MTT assay after neurosphere culture; type: cell-based, human; conditions: 14 days culture, daily treatment; EGCG 8 μM, Curcumin 0.5 μM, SFN 2.5 μM or all three
# Experimental: FIG. 33B) hNSC were plated at 20K cells per 100 ul of medium and cultured in the neurosphere assay for 14 days. […] After 14 days in culture, MTT assay was performed to measure cell viability.
# [7] = test system: Primary human GB stem cell lines; assay: Daily fold expansion, NP and TMZ in vitro; type: cell-based; conditions: in combination with TMZ; EGCG 8 μM, Curcumin 0.5 μM, SFN 2.5 μM or all three
# Experimental: FIG. 11: Daily fold expansion—Effect of NP and TMZ in vitro. Primary human GB stem cell lines were treated daily for 4 out of 5 days in culture TMZ alone or in combination with EGCG (8 μM), Curcumin (0.5 μM), sulforaphane (2.5 μM) or a combination of all three (NP). Cells were passed after 5-7 days and cell counts performed. […] The stars (*) are compared to control, # to TMZ alone and $ to the different combinations of TMZ with each of the individual natural products. 1 symbol, p<0.05, 3 symbols, p<0.001, 1-way ANOVA.
# Standard of care [SOC] for many solid tissue cancers involves the use of chemotherapy, which for many advanced or high grade tumors provides marginal benefit. Patient derived hGB cells were grown in culture and treated daily with the conventional drug temozolomide [TMZ, 20 μM] only or in combination with the following NPs:
# [4] a combination of all three NPs
# After 5-7 days in culture cells were counted and the mean daily fold expansion calculated.
# [8] = Non-tumor death, TMZ vs. mKD/NP; type: in vivo, mouse; conditions: TMZ 20 mg/kg three times/week; mKD/NP diet; vs untreated controls
# Description: FIG. 5: Non-Tumor Death—TMZ vs. mKD/NP. Mortality rate unrelated to tumor was monitored during the course of treatments.
# [9] = Body weight, TMZ vs. mKD/NP; conditions: after 4 days of treatment, TMZ 20 mg/kg
# Experimental: FIG. 6: Body weight—TMZ vs. mKD/NP. Toxicity/safety of mKD/NP was compared to standard of care (TMZ, 20 mg/kg) by monitoring body weight after 4 days of treatment.
# The first line chemotherapy for high grade gliomas is temozolomide [TMZ], which is an oral alkylating agent that damages DNA and triggers cell death. While TMZ is an effective chemotherapy agent it also has significant toxicity. Using the same subcutaneous model as noted in example 2, at the time of tumor presentation animals were randomly assigned to one of three groups: [1] control diet, no treatment; [2] control diet, SOC [TMZ, 20 mg/kg three times/week]; [3] mKD/NP diet.
# [10] = test system: high-grade gliomas such as GB; conditions: GB patients; cited from earlier work
Molecule,mean daily fold expansion of GB cells [1],cell viability (MTT) [2],cell number [3],cell number [4],CSC self-renewing symmetric division rate (Kll) [5],cell viability (MTT) [6],"mean daily fold expansion, natural product added to TMZ treatment [7]",mortality from non-tumor related causes [8],body weight [9],body weight ([9]; listed as SOC),negative side effects [10]
epigallocatechin-3-gallate [EGCG],significant reduction in mean daily fold expansion,no statistically significant effect on reducing the number of breast cancer cells; also recorded: none of the natural product showed statistically significant effect compared to controls,do not show a statistically significant effect in reducing cell numbers,significant reduction in cell number,Only SFN or NP treated groups demonstrated significant decrease,did not show any effect on the viability of hNSCs,enhanced this effect; also recorded: significant reduction in the mean daily fold expansion of hGB cells compared to control,–,–,–,–
"Cn1nnc2c(C(N)=O)ncn2c1=O [TMZ, temozolomide]",–,–,–,–,–,–,–,increase in mortality compared to the untreated controls,significant loss of body weight compared to control and mKD/NP,significantly reduced,"nausea, vomiting and hematological toxicity"
"C[S+]([O-])CCCCN=C=S (stereo not drawn) [SFN, sulforaphane]",significant reduction in mean daily fold expansion,no statistically significant effect on reducing the number of breast cancer cells; also recorded: none of the natural product showed statistically significant effect compared to controls,–,significant reduction in cell number,significant decrease of CSCs self-renewing symmetric division rate compared to control,did not show any effect on the viability of hNSCs,"enhanced this effect, with SFN demonstrating the greatest effect; also recorded: significant reduction in the mean daily fold expansion of hGB cells compared to control",–,–,–,–
"COc1cc(/C=C/C(=O)CC(=O)/C=C/c2ccc(O)c(OC)c2)ccc1O [Curcumin, curcumin]",significant reduction in mean daily fold expansion,no statistically significant effect on reducing the number of breast cancer cells; also recorded: none of the natural product showed statistically significant effect compared to controls,do not show a statistically significant effect in reducing cell numbers,significant reduction in cell number,Only SFN or NP treated groups demonstrated significant decrease,did not show any effect on the viability of hNSCs,significant reduction in the mean daily fold expansion of hGB cells compared to control,–,–,–,–
